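Results reflect a 48-hour exposure of cells in 96-well plates to compound at five concentrations. Definition used: TGI = concentration required for complete inhibition of growth.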

In one test the test system is SK-MEL-2 melanoma. The test can be described thus: NCI anticancer screen, dose series, 48 h.
Take `CCCCCCCCCCC(C(=O)O)C1(C(=O)O)CCC(=O)O1` (stereo not given): the TGI is over 100 µM.
Still for that read-out and setting: the same measure for `CC(=O)N1C(=O)/C(=C\C(=O)c2ccc([N+](=O)[O-])cc2)c2ccccc21`: over 100 µM.

For a further test, the system named is SK-MEL-28 melanoma. The test can be described thus: NCI anticancer screen, dose series, 48 h.
Compound `C/C(=N/NC(=S)Nc1ccc([N+](=O)[O-])cc1)c1cccc(/C(C)=N\NC(=S)Nc2ccc([N+](=O)[O-])cc2)n1` registered a TGI of over 100 µM.
On the same count and under the same terms, the same measure for `CCOC(=O)C1=[N+]([O-])OC2=C(O)CCCC21` (stereo not given): over 100 µM; for `CCCCCCCCCCC(C(=O)O)C1(C(=O)O)CCC(=O)O1` (stereo not given): over 100 µM.

For a further test, the system named is SK-MEL-5 melanoma. The test can be described thus: NCI anticancer screen, dose series, 48 h.
With `C/C(=N/NC(=S)Nc1ccc([N+](=O)[O-])cc1)c1cccc(/C(C)=N\NC(=S)Nc2ccc([N+](=O)[O-])cc2)n1`, the TGI turned out to be 7.29 µM.
`CCOC(=O)C1=[N+]([O-])OC2=C(O)CCCC21` (stereo not given) showed a TGI of over 100 µM.
The same measure, in the same setting: in the case of `CC(=O)N1C(=O)/C(=C\C(=O)c2ccc([N+](=O)[O-])cc2)c2ccccc21` it was over 100 µM.

In another test the test system is SK-OV-3 ovarian. The experiment in a line: NCI anticancer screen, dose series, 48 h.
`C/C(=N/NC(=S)Nc1ccc([N+](=O)[O-])cc1)c1cccc(/C(C)=N\NC(=S)Nc2ccc([N+](=O)[O-])cc2)n1` yielded a TGI of 10.7 µM.
Same read-out and setting: in the case of `CCOC(=O)C1=[N+]([O-])OC2=C(O)CCCC21` (stereo not given) it was over 100 µM; in that of `CCCCCCCCCCC(C(=O)O)C1(C(=O)O)CCC(=O)O1` (stereo not given), over 100 µM.
On the same count and under the same terms, the same measure for `CC(=O)N1C(=O)/C(=C\C(=O)c2ccc([N+](=O)[O-])cc2)c2ccccc21`: over 100 µM.

The next test deals with SN12C renal. The experiment in a line: NCI anticancer screen, dose series, 48 h.
Turning to `C/C(=N/NC(=S)Nc1ccc([N+](=O)[O-])cc1)c1cccc(/C(C)=N\NC(=S)Nc2ccc([N+](=O)[O-])cc2)n1`, the TGI stood at 14.4 µM.
Same read-out and setting: the same measure for `CCOC(=O)C1=[N+]([O-])OC2=C(O)CCCC21` (stereo not given): over 100 µM.
Take `CCCCCCCCCCC(C(=O)O)C1(C(=O)O)CCC(=O)O1` (stereo not given): the TGI is over 100 µM.
On the same count and under the same terms, the same measure for `CC(=O)N1C(=O)/C(=C\C(=O)c2ccc([N+](=O)[O-])cc2)c2ccccc21`: 35 µM.

Another test has as its system SNB-19 CNS. The test can be described thus: NCI anticancer screen, dose series, 48 h.
Take `C/C(=N/NC(=S)Nc1ccc([N+](=O)[O-])cc1)c1cccc(/C(C)=N\NC(=S)Nc2ccc([N+](=O)[O-])cc2)n1`: the TGI was found to be 17.8 µM.
In the case of `CCOC(=O)C1=[N+]([O-])OC2=C(O)CCCC21` (stereo not given), the TGI is over 100 µM.
Same read-out and setting: the same measure for `CCCCCCCCCCC(C(=O)O)C1(C(=O)O)CCC(=O)O1` (stereo not given): over 100 µM; for `CC(=O)N1C(=O)/C(=C\C(=O)c2ccc([N+](=O)[O-])cc2)c2ccccc21`: over 100 µM.

A further test relates to SNB-75 CNS. The test can be described thus: NCI anticancer screen, dose series, 48 h.
As for `C/C(=N/NC(=S)Nc1ccc([N+](=O)[O-])cc1)c1cccc(/C(C)=N\NC(=S)Nc2ccc([N+](=O)[O-])cc2)n1`, the TGI was over 44.3 µM.
Same read-out and setting: the same measure for `CCOC(=O)C1=[N+]([O-])OC2=C(O)CCCC21` (stereo not given): over 100 µM.
Still for that read-out and setting: in the case of `CCCCCCCCCCC(C(=O)O)C1(C(=O)O)CCC(=O)O1` (stereo not given) it was over 100 µM; in that of `CC(=O)N1C(=O)/C(=C\C(=O)c2ccc([N+](=O)[O-])cc2)c2ccccc21`, 49.6 µM.

For a further test, the system named is SR leukemia. The test can be described thus: NCI anticancer screen, dose series, 48 h.
For the compound `C/C(=N/NC(=S)Nc1ccc([N+](=O)[O-])cc1)c1cccc(/C(C)=N\NC(=S)Nc2ccc([N+](=O)[O-])cc2)n1`, the TGI was 2.33 µM.
Still for that read-out and setting: the same measure for `CCOC(=O)C1=[N+]([O-])OC2=C(O)CCCC21` (stereo not given): over 100 µM.
The same measure, in the same setting: the same measure for `CCCCCCCCCCC(C(=O)O)C1(C(=O)O)CCC(=O)O1` (stereo not given): over 100 µM; for `CC(=O)N1C(=O)/C(=C\C(=O)c2ccc([N+](=O)[O-])cc2)c2ccccc21`: 20.3 µM.

The subject of a further test is SW-620 colon. The test can be described thus: NCI anticancer screen, dose series, 48 h.
`C/C(=N/NC(=S)Nc1ccc([N+](=O)[O-])cc1)c1cccc(/C(C)=N\NC(=S)Nc2ccc([N+](=O)[O-])cc2)n1` registered a TGI of 16.1 µM.
In turn, `CCOC(=O)C1=[N+]([O-])OC2=C(O)CCCC21` (stereo not given) returned a TGI of over 100 µM.
Same read-out and setting: the same measure for `CCCCCCCCCCC(C(=O)O)C1(C(=O)O)CCC(=O)O1` (stereo not given): over 100 µM.

In another test the test system is T-47D breast. The test can be described thus: NCI anticancer screen, dose series, 48 h.
In turn, `C/C(=N/NC(=S)Nc1ccc([N+](=O)[O-])cc1)c1cccc(/C(C)=N\NC(=S)Nc2ccc([N+](=O)[O-])cc2)n1` registered a TGI of 24.2 µM.
On the same count and under the same terms, in the case of `CCOC(=O)C1=[N+]([O-])OC2=C(O)CCCC21` (stereo not given) it was over 100 µM; in that of `CCCCCCCCCCC(C(=O)O)C1(C(=O)O)CCC(=O)O1` (stereo not given), over 100 µM; in that of `CC(=O)N1C(=O)/C(=C\C(=O)c2ccc([N+](=O)[O-])cc2)c2ccccc21`, 61.9 µM.

For the next test, the system named is TK-10 renal. The test can be described thus: NCI anticancer screen, dose series, 48 h.
As to `C/C(=N/NC(=S)Nc1ccc([N+](=O)[O-])cc1)c1cccc(/C(C)=N\NC(=S)Nc2ccc([N+](=O)[O-])cc2)n1`, the TGI was 15.7 µM.
The same measure, in the same setting: the same measure for `CCOC(=O)C1=[N+]([O-])OC2=C(O)CCCC21` (stereo not given): over 100 µM; for `CCCCCCCCCCC(C(=O)O)C1(C(=O)O)CCC(=O)O1` (stereo not given): over 100 µM; for `CC(=O)N1C(=O)/C(=C\C(=O)c2ccc([N+](=O)[O-])cc2)c2ccccc21`: 26.3 µM.

For another test, the system named is U251 CNS. The test can be described thus: NCI anticancer screen, dose series, 48 h.
Turning to `C/C(=N/NC(=S)Nc1ccc([N+](=O)[O-])cc1)c1cccc(/C(C)=N\NC(=S)Nc2ccc([N+](=O)[O-])cc2)n1`, the TGI worked out at 14.6 µM.
Still for that read-out and setting: the same measure for `CCOC(=O)C1=[N+]([O-])OC2=C(O)CCCC21` (stereo not given): over 100 µM; for `CCCCCCCCCCC(C(=O)O)C1(C(=O)O)CCC(=O)O1` (stereo not given): over 100 µM; for `CC(=O)N1C(=O)/C(=C\C(=O)c2ccc([N+](=O)[O-])cc2)c2ccccc21`: 46.4 µM.

In a further test the test system is UACC-257 melanoma. The experiment in a line: NCI anticancer screen, dose series, 48 h.
`C/C(=N/NC(=S)Nc1ccc([N+](=O)[O-])cc1)c1cccc(/C(C)=N\NC(=S)Nc2ccc([N+](=O)[O-])cc2)n1` came in with a TGI of 13.1 µM.
On the same count and under the same terms, the same measure for `CCOC(=O)C1=[N+]([O-])OC2=C(O)CCCC21` (stereo not given): over 100 µM.
Same read-out and setting: in the case of `CCCCCCCCCCC(C(=O)O)C1(C(=O)O)CCC(=O)O1` (stereo not given) it was over 100 µM; in that of `CC(=O)N1C(=O)/C(=C\C(=O)c2ccc([N+](=O)[O-])cc2)c2ccccc21`, 40.9 µM.

Another test relates to UACC-62 melanoma. The experiment in a line: NCI anticancer screen, dose series, 48 h.
On to `C/C(=N/NC(=S)Nc1ccc([N+](=O)[O-])cc1)c1cccc(/C(C)=N\NC(=S)Nc2ccc([N+](=O)[O-])cc2)n1`, for which the TGI was found to be 2.87 µM.
On the same count and under the same terms, in the case of `CCOC(=O)C1=[N+]([O-])OC2=C(O)CCCC21` (stereo not given) it was over 100 µM; in that of `CCCCCCCCCCC(C(=O)O)C1(C(=O)O)CCC(=O)O1` (stereo not given), over 100 µM.
Same read-out and setting: in the case of `CC(=O)N1C(=O)/C(=C\C(=O)c2ccc([N+](=O)[O-])cc2)c2ccccc21` it was 38.1 µM.

The test system of a further test is UO-31 renal. The experiment in a line: NCI anticancer screen, dose series, 48 h.
Consider `C/C(=N/NC(=S)Nc1ccc([N+](=O)[O-])cc1)c1cccc(/C(C)=N\NC(=S)Nc2ccc([N+](=O)[O-])cc2)n1`, for which the TGI amounted to 4.97 µM.
The same measure, in the same setting: in the case of `CCOC(=O)C1=[N+]([O-])OC2=C(O)CCCC21` (stereo not given) it was over 100 µM; in that of `CCCCCCCCCCC(C(=O)O)C1(C(=O)O)CCC(=O)O1` (stereo not given), over 100 µM; in that of `CC(=O)N1C(=O)/C(=C\C(=O)c2ccc([N+](=O)[O-])cc2)c2ccccc21`, 63 µM.

Source of the values: PubChem BioAssay (NCI).
